Each compound was assayed against c-Kit kinase (Homo sapiens (Human), UniProt P10721) (assay: c-Kit biochemical assay (AlphaScreen kinase activity)).
Outline: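 AlphaScreen: c-Kit phosphorylates biotin-(E4Y)3 (100 nM) at 10 μM ATP, pH 7.2 HEPES buffer with Mg/Mn, 5% DMSO, 1 h room temperature; streptavidin donor and PY30 acceptor beads detect product. Second format: 100 μM ATP, 30 nM biotin-(E4Y)10, pH 7.5. IC50 from 8-point 1:3 dilution curves.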

Chain of c-Kit kinase (P10721 26-976): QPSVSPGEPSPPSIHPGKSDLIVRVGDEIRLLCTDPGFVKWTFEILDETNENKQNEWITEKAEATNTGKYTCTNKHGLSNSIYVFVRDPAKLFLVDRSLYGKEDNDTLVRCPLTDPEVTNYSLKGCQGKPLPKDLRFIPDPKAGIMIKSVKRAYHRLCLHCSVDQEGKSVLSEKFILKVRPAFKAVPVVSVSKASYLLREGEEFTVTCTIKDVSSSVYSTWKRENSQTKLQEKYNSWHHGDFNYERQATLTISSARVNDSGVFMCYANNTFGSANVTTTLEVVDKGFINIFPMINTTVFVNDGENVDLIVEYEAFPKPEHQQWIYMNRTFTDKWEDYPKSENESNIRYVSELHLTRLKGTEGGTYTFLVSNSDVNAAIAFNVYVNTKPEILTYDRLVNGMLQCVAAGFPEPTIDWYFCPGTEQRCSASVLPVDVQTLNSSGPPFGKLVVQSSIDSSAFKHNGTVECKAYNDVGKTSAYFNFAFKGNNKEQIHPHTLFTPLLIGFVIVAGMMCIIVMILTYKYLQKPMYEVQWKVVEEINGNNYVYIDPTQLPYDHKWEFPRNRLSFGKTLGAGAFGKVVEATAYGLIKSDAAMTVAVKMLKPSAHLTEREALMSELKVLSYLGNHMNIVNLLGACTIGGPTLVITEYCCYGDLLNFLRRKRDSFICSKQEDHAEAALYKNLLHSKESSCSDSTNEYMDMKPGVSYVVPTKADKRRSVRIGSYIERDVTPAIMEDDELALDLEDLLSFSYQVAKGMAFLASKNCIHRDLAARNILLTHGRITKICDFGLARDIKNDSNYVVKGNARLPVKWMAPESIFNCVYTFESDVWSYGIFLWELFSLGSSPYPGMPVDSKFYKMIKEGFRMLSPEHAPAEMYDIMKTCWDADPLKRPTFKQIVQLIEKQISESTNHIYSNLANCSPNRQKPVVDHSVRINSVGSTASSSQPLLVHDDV

Row | Structure (SMILES) | IC50
1 | Cc1nc(C2CCN(c3ncnc4[nH]c(-c5cnn(C(F)F)c5)cc34)CC2)[nH]c1-c1ccc2c(c1)OCO2 [P-3138, 4-[4-[5-(1,3-benzodioxol-5-yl)-4-methyl-1H-imidazol-2-yl]-1-piperidyl]-6-[1-(difluoromethyl)pyrazol-4-yl]-7H-pyrrolo[2,3-d]pyrimidine] | 0.0001 to 1 µM
2 | CCOc1ccc(-c2[nH]c(C3CCN(c4ncnc5[nH]c(-c6cnn(C(F)F)c6)cc45)CC3)nc2C)cc1C [P-3139, 6-[1-(difluoromethyl)pyrazol-4-yl]-4-[4-[5-(4-ethoxy-3-methyl-phenyl)-4-methyl-1H-imidazol-2-yl]-1-piperidyl]-7H-pyrrolo[2,3-d]pyrimidine] | 0.0001 to 1 µM
3 | CCC1(c2nc(C)c(-c3ccc(OC)cc3)[nH]2)CCN(c2ncnc3[nH]c(C)cc23)CC1 [P-3140, 4-[4-ethyl-4-[5-(4-methoxyphenyl)-4-methyl-1H-imidazol-2-yl]-1-piperidyl]-6-methyl-7H-pyrrolo[2,3-d]pyrimidine] | 1 to 10 µM
4 | CCC1(c2nc(C)c(-c3ccc(OC)c(C)c3)[nH]2)CCN(c2ncnc3[nH]c(C)cc23)CC1 [P-3141, 4-[4-ethyl-4-[5-(4-methoxy-3-methyl-phenyl)-4-methyl-1H-imidazol-2-yl]-1-piperidyl]-6-methyl-7H-pyrrolo[2,3-d]pyrimidine] | 1 to 10 µM
5 | CCOc1ccc(-c2[nH]c(C3(CC)CCN(c4ncnc5[nH]c(C)cc45)CC3)nc2C)cc1C [P-3142, 4-[4-[5-(4-ethoxy-3-methyl-phenyl)-4-methyl-1H-imidazol-2-yl]-4-ethyl-1-piperidyl]-6-methyl-7H-pyrrolo[2,3-d]pyrimidine] | 1 to 10 µM
6 | CCC1(c2nc(C)c(-c3ccc4c(c3)OCO4)[nH]2)CCN(c2ncnc3[nH]c(C)cc23)CC1 [P-3143, 4-[4-[5-(1,3-benzodioxol-5-yl)-4-methyl-1H-imidazol-2-yl]-4-ethyl-1-piperidyl]-6-methyl-7H-pyrrolo[2,3-d]pyrimidine] | 1 to 10 µM
7 | CCC1(c2nc(C)c(-c3ccc4c(c3)OCCO4)[nH]2)CCN(c2ncnc3[nH]c(C)cc23)CC1 [P-3144, 4-[4-[5-(2,3-dihydro-1,4-benzodioxin-6-yl)-4-methyl-1H-imidazol-2-yl]-4-ethyl-1-piperidyl]-6-methyl-7H-pyrrolo[2,3-d]pyrimidine] | 1 to 10 µM
8 | CCOc1ccc(-c2[nH]c(C3(CC)CCN(c4ncnc5[nH]c(C)cc45)CC3)nc2C)cc1 [P-3145, 4-[4-[5-(4-ethoxyphenyl)-4-methyl-1H-imidazol-2-yl]-4-ethyl-1-piperidyl]-6-methyl-7H-pyrrolo[2,3-d]pyrimidine] | 1 to 10 µM
9 | COc1ccc(-c2[nH]c(C3CCN(c4ncnc5[nH]c(-c6ccnc(OC)c6)cc45)CC3)nc2C(F)(F)F)cc1 [P-3146, 4-[4-[5-(4-methoxyphenyl)-4-(trifluoromethyl)-1H-imidazol-2-yl]-1-piperidyl]-6-(2-methoxy-4-pyridyl)-7H-pyrrolo[2,3-d]pyrimidine] | 0.0001 to 1 µM
10 | COc1ccc(-c2[nH]c(C3CCN(c4ncnc5[nH]c(-c6ccc(C#N)cc6)cc45)CC3)nc2C(F)(F)F)cc1 [P-3148, 4-[4-[4-[5-(4-methoxyphenyl)-4-(trifluoromethyl)-1H-imidazol-2-yl]-1-piperidyl]-7H-pyrrolo[2,3-d]pyrimidin-6-yl]benzonitrile] | 0.0001 to 1 µM
11 | COc1cc(-c2cc3c(N4CCC(c5nc(C)c(-c6ccc(C(F)(F)F)cc6)[nH]5)CC4)ncnc3[nH]2)ccn1 [P-3149, 6-(2-methoxy-4-pyridyl)-4-[4-[4-methyl-5-[4-(trifluoromethyl)phenyl]-1H-imidazol-2-yl]-1-piperidyl]-7H-pyrrolo[2,3-d]pyrimidine] | 1 to 10 µM
12 | Cc1cc2c(N3CCC(C)(c4nc(C)c(-c5ccc6c(c5)OCO6)[nH]4)CC3)ncnc2[nH]1 [P-3150, 4-[4-[5-(1,3-benzodioxol-5-yl)-4-methyl-1H-imidazol-2-yl]-4-methyl-1-piperidyl]-6-methyl-7H-pyrrolo[2,3-d]pyrimidine] | 1 to 10 µM
13 | Cc1cc2c(N3CCC(C)(c4nc(C)c(-c5ccc6c(c5)OCCO6)[nH]4)CC3)ncnc2[nH]1 [P-3151, 4-[4-[5-(2,3-dihydro-1,4-benzodioxin-6-yl)-4-methyl-1H-imidazol-2-yl]-4-methyl-1-piperidyl]-6-methyl-7H-pyrrolo[2,3-d]pyrimidine] | 1 to 10 µM
14 | Cc1cc2c(N3CCC(C)(c4nc(C)c(-c5ccc6c(c5)OC(F)(F)O6)[nH]4)CC3)ncnc2[nH]1 [P-3152, 4-[4-[5-(2,2-difluoro-1,3-benzodioxol-5-yl)-4-methyl-1H-imidazol-2-yl]-4-methyl-1-piperidyl]-6-methyl-7H-pyrrolo[2,3-d]pyrimidine] | 1 to 10 µM
15 | COc1ccc(-c2[nH]c(C3(C)CCN(c4ncnc5[nH]c(-c6cnn(C(F)F)c6)cc45)CC3)nc2C)cc1 [P-3153, 6-[1-(difluoromethyl)pyrazol-4-yl]-4-[4-[5-(4-methoxyphenyl)-4-methyl-1H-imidazol-2-yl]-4-methyl-1-piperidyl]-7H-pyrrolo[2,3-d]pyrimidine] | 0.0001 to 1 µM
16 | COc1ccc(-c2[nH]c(C3(C)CCN(c4ncnc5[nH]c(-c6cnn(C(F)F)c6)cc45)CC3)nc2C)cc1C [P-3154, 6-[1-(difluoromethyl)pyrazol-4-yl]-4-[4-[5-(4-methoxy-3-methyl-phenyl)-4-methyl-1H-imidazol-2-yl]-4-methyl-1-piperidyl]-7H-pyrrolo[2,3-d]pyrimidine] | 0.0001 to 1 µM
17 | Cc1nc(C2(C)CCN(c3ncnc4[nH]c(-c5cnn(C(F)F)c5)cc34)CC2)[nH]c1-c1ccc2c(c1)OCO2 [P-3155, 4-[4-[5-(1,3-benzodioxol-5-yl)-4-methyl-1H-imidazol-2-yl]-4-methyl-1-piperidyl]-6-[1-(difluoromethyl)pyrazol-4-yl]-7H-pyrrolo[2,3-d]pyrimidine] | 0.0001 to 1 µM
18 | COc1ccc(-c2[nH]c(C3(C)CCN(c4ncnc5[nH]c(-c6ccc(OC)nc6)cc45)CC3)nc2C)cc1 [P-3156, 4-[4-[5-(4-methoxyphenyl)-4-methyl-1H-imidazol-2-yl]-4-methyl-1-piperidyl]-6-(6-methoxy-3-pyridyl)-7H-pyrrolo[2,3-d]pyrimidine] | 0.0001 to 1 µM
19 | COc1ccc(-c2cc3c(N4CCC(C)(c5nc(C)c(-c6ccc(OC)c(C)c6)[nH]5)CC4)ncnc3[nH]2)cn1 [P-3157, 4-[4-[5-(4-methoxy-3-methyl-phenyl)-4-methyl-1H-imidazol-2-yl]-4-methyl-1-piperidyl]-6-(6-methoxy-3-pyridyl)-7H-pyrrolo[2,3-d]pyrimidine] | 0.0001 to 1 µM
20 | COc1ccc(-c2cc3c(N4CCC(C)(c5nc(C)c(-c6ccc7c(c6)OCO7)[nH]5)CC4)ncnc3[nH]2)cn1 [P-3158, 4-[4-[5-(1,3-benzodioxol-5-yl)-4-methyl-1H-imidazol-2-yl]-4-methyl-1-piperidyl]-6-(6-methoxy-3-pyridyl)-7H-pyrrolo[2,3-d]pyrimidine] | 0.0001 to 1 µM
21 | Cc1nc(C2(C)CCN(c3ncnc4[nH]c(-c5ccc(C#N)cc5)cc34)CC2)[nH]c1-c1ccc2c(c1)OCO2 [P-3159, 4-[4-[4-[5-(1,3-benzodioxol-5-yl)-4-methyl-1H-imidazol-2-yl]-4-methyl-1-piperidyl]-7H-pyrrolo[2,3-d]pyrimidin-6-yl]benzonitrile] | 0.0001 to 1 µM
22 | CCOc1ccc(-c2[nH]c(C3(C)CCN(c4ncnc5[nH]c(-c6ccc(C#N)cc6)cc45)CC3)nc2C)cc1C [P-3160, 4-[4-[4-[5-(4-ethoxy-3-methyl-phenyl)-4-methyl-1H-imidazol-2-yl]-4-methyl-1-piperidyl]-7H-pyrrolo[2,3-d]pyrimidin-6-yl]benzonitrile] | 0.0001 to 1 µM
